Results: paper PMC3338484
Values joined by “and” are separate entries in the source; they are usually repeats but may differ in a detail not shown here. Identical values can stand only once.

How the values were obtained:
[1] = target: T1, PaFolD (Pseudomonas aeruginosa, UniProt Q9I2U6); test: FolD enzyme assay (absorbance at 350 nm), IC50 determination; assay type: biochemical; conditions: for Hill coefficient: from PaFolD IC50 curves
T1 construct: hexa-histidine tag with TEV protease site (N, cleaved yes); made in house; host or cells: E. coli BL21 (DE3)
Description: Enzyme activity was assayed by measuring the absorbance at 350 nm of the intermediate product in the reaction, N ^5,N ^10-methenyl-THF, following acidification of the reaction and consequent reconversion of the final product formyl-THF to the intermediate. Following optimization of the assay buffer and determination of the enzyme linearity, assays were carried out at room temperature in a 50 µL reaction volume containing 25 mM bicine, pH 7.9, 1 mM dithiothreitol, 0.05% CHAPS, 0.2 mg mL^−1 BSA, 1 nM recombinant FolD, […] NADP^+ and 35 µM N ^5,N ^10-methylene-THF. Michaelis constants for the two substrates (NADP^+ and N ^5,N ^10-methylene-THF) were determined in an end-point assay, using these buffer and enzyme conditions.
The HTS was performed with a compound collection of 79,029 diverse structures based around 4000 chemical scaffolds. All compounds were dissolved in 100% DMSO to a concentration of 3 mM. Single point inhibition assays were carried out at room temperature in clear, flat bottom, polystyrene, 384-well plates (Matrix). Each assay was performed in a 50 µL reaction volume as described above. A standard compound (0.5 µL in DMSO) was transferred to all assay plates using a Cartesian Hummingbird (Genomics Solutions) before 25 µL of a reaction mix, containing all assay components except NADP^+ and N ^5,N ^10-methylene-THF, was added to assay plates using a Thermo Scientific Well-Mate (Matrix). The reaction was initiated and stopped with the additions of 25 µL of substrate and 50 µL of 1 M HCl, respectively, again using a Well-Mate. The FolD assay was run at room temperature for 20 min and the signal was allowed to develop for 10 min before the absorbance of each well was read at 350 nm using an EnVision multilabel plate reader (PerkinElmer Life Sciences). ActivityBase (ID Business Solutions) was used for data processing and analysis.
Compounds of interest were cherry picked from the original library plates using a series of 10-point inhibitor curves (consisting of half-log serial dilutions of compound in DMSO) and prepared in 384-well plates using a JANUS workstation (PerkinElmer Life Sciences). Each compound plate produced 10-point inhibitor curves for 30 test compounds and two curves for LY374571, the standard compound in this screen (see following paragraph for inhibitor details). Following preparation of the inhibitor curves, assays were carried out as described above. ActivityBase was again used for data processing and analysis. All IC50 curve fitting was undertaken within ActivityBase XE utilizing the underlying ‘MATH IQ’ engine of XLfit version 5.1.0.0. A four-parameter logistic dose-response curve was utilized for compound potency determination.
Enzyme activity was assayed in an optimised buffer at 1 nM PaFolD. […] When saturating concentrations of either substrate or co-factor were required N ^5,N ^10-methylene-THF was used at 250 µM and NADP^+ at 1 mM. For screening the compound library N ^5,N ^10-methylene-THF was fixed at a concentration of 35 µM and NADP^+ was saturating at 1 mM and the assay was stopped after 20 minutes (within the linear range of the assay).

[2] = target: T1, PaFolD; test: Surface plasmon resonance (SPR) binding to biotinylated PaFolD; conditions: for binding to PaFolD by SPR: running buffer with 1 mM NADP+, 1% DMSO, data not shown; for rate of association (SPR): association measured for 1 min, LY374571 could not compete off this binding
Description: For analysis of compounds using SPR it was necessary to produce an expression system that provided a protein carrying a biotinylation acceptor peptide (BAP-tag). This BAP-tag peptide has the sequence 5′ - […] - 3′ and is specifically biotinylated by the E. coli biotin holoenzyme synthetase, BirA. The modified PaFolD was then purified as before. Subsequently 30 µM of BAP-tagged PaFolD was incubated at 37°C overnight in buffer C (10 mM Tris-HCl pH 7.5, 200 mM KCl, 5 mM MgCl2, 100 µM d-biotin) containing 500 µM ATP and 1 µM BirA. The sample was passed through a HisTrap HP column equilibrated with buffer A to remove BirA. The flow through was collected and concentrated (Amicon 10 kDa MWCO spin column) to remove free biotin. The incorporation of biotin was monitored by MALDI-TOF analysis performed at the University of Dundee ‘Fingerprints’ Proteomics Facility using an Applied Biosystems Voyager DE-STR spectrometer. The biotinylated protein was flash frozen at 10 mg mL^−1 in 50 mM Tris-HCl, 250 mM NaCl, 15% glycerol, pH 7.5 and stored at −80°C until required.
A Biacore T100 instrument (GE Healthcare) was used for all SPR experiments. Biotinylated PaFolD was diluted 50-fold into a running buffer containing 50 mM Tris-HCl, pH 7.5, 150 mM NaCl, 5 mM MgCl2, 1 mM DTT, 0.05% Tween 20, 1 mM NADP^+ and 1% DMSO and injected over a streptavidin chip (GE Healthcare) at a flow rate of 10 µL min^−1 for 10 min to obtain a density of ∼4,000 response units. Compounds DDD55519 and DDD61461 were injected in duplicates at three-fold concentration series 136 nM–11 µM at a flow rate 30 µL min^−1. Association was measured for 1 min and dissociation for 20 min. Compounds DDD32388 and DDD58331 were injected at three-fold concentration series of between 1.23 µM–100 µM at a flow rate 30 µL min^−1. Association was measured for 1 min and dissociation 2 min. Data were referenced from a blank streptavidin surface and blank injections of buffer. Processing was carried out using Scrubber 2 software (BioLogic Software, Australia).

[3] = test system: P. aeruginosa PAO1 ATCC 15692; test: Disc diffusion sensitivity testing; assay type: cell-based, Pseudomonas aeruginosa; conditions: for clearance in disc diffusion sensitivity assay: six dilutions, approximately 115 µg to 4.5 ng per disc, zones measured after 16 and 48 hours, data not shown
Description: Compounds identified by HTS were used in a disc diffusion sensitivity test against P. aeruginosa. Briefly a single colony of P. aeruginosa PAO1 ATCC 15692 was used to inoculate a 2 mL volume of LB media prior to overnight growth at 37°C. The bacteria were then diluted 1∶100 fold prior to 100 µL volumes plated onto Iso-Sensitest agar plates and dried in air for 5 minutes. Eight 3 mm discs were impregnated with 5 µl of compound, dissolved in DMSO, prior to loading onto each plate. Two controls were used per plate, one a 100% DMSO stock, the other a 10 µg stock of gentamycin. Six compound dilutions were tested per plate, ranging from approximately 115 µg to 4.5 ng. Three compounds with known antifolate activity were tested, namely methotrexate, LY354899 and LY374571 in addition to the three singletons, DDD32388, DDD55519 and DDD61461, and two of the biaryl sulphonamide series that had been identified. Plates were incubated at 37°C, and zones of inhibition measured after 16 and 48 hours.

[4] = target: T1, PaFolD; test: Differential scanning fluorimetry (DSF) thermal shift screen; assay type: binding; conditions: standards at 250 µM; 4 µM PaFolD, 4 mM NADP+
From the text: It was reasoned that such conditions would favour crystallization. In addition two compound libraries, the Maybridge fragment set and the Prestwick collection of biologically active molecules, were screened after first assessing the suitability of the method for PaFolD, the optimum buffer and cofactor conditions and the lowest concentration of protein that generated a strong signal as previously described for our laboratory. An Mx3005p RT PCR system (Stratagene) was used to monitor protein unfolding by the increase in fluorescence of SYPRO Orange dye (Invitrogen). Briefly, the enzyme was tested against 1000 compounds from the Maybridge Rule of Three (Ro3) fragment library and 1120 compounds from the Prestwick Chemical Library. Assays were carried out in 40 µL volumes with PaFolD at 4 µM, supplemented with 4 mM NADP^+ in 50 mM Tris-HCl, 250 mM NaCl, pH 7.5 in 96 well RT PCR plates (Abgene). […] After each 1°C increase the sample was excited at 492 nm and fluorescence emissions recorded at 610 nm. […]
In advance of performing a large-scale HTS, PaFolD was assayed combining DSF with the Prestwick Chemical Library of drug-like molecules (1,200 compounds) and a bespoke Maybridge RO3 fragment library of 1,000 compounds. […] A number of compounds in the Prestwick library gave apparent thermal shifts of approximately +10°C, however all of these were rejected due to their intrinsic fluorescence. […]

[5] = test system: HsFolD; conditions: slightly different assay conditions; read-out: IC50 against HsFolD; cited from earlier work
[6] = IC50 (μM), confirmed HTS hits, ten-point dose response, 30 µM to 1 nM

T1 sequence (Q9I2U6 whole entry): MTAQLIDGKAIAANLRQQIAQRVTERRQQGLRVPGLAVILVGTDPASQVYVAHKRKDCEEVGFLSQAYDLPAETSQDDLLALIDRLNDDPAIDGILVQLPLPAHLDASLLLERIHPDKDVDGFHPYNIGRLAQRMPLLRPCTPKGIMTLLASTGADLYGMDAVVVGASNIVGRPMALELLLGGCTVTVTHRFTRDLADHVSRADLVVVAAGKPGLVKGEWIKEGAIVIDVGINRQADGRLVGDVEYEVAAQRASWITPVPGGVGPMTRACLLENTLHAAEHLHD

With `NC(=O)c1ccc[n+]([C@@H]2O[C@H](COP(=O)([O-])OP(=O)(O)OC[C@H]3O[C@@H](n4cnc5c(N)ncnc54)[C@H](OP(=O)(O)O)[C@@H]3O)[C@@H](O)[C@H]2O)c1` [NADP^+] the Km ([1]; 1 nM PaFolD, end-point assay, other substrate saturating, mean ± SD (n = 4), read-out: Michaelis constant (Km)) was 179 ± 11 µM.

In the case of `CCOc1nc(N)nc(N)c1S(=O)(=O)c1ccc(Cl)cc1` [DDD32388], the “binding to PaFolD by SPR” value [2] is reported as “weak”, the IC50 [1, 6] is reported as 0.9 µM and the Hill coefficient [1] is reported as 1.6.

In the case of `Oc1cc(C(F)(F)F)nc(SCc2c(F)cccc2Cl)n1` [DDD61461], the “rate of association (SPR)” value [2] is reported as “slow rates of association”, the “binding to PaFolD by SPR” value [2] is reported as “confirmed” and the IC50 [1, 6] is reported as 2.5 µM. The Hill coefficient [1] was 2.6.

In the case of gentamycin, the “radius cleared (zone of inhibition)” value ([3]; 10 µg stock control disc, P. aeruginosa PAO1) is reported as 13 mm.

In the case of `Nc1nc(O)c(N)c(NC(=O)Nc2ccc(C(=O)N[C@H](CCC(=O)O)C(=O)O)cc2)n1` [LY374571, (2R)-2-[(4-{[(2,5-diamino-6-hydroxypyrimidin-4-yl)carbamoyl]amino}phenyl)formamido] pentanedioic acid], the ΔTm at 250 µM [4] is reported as 15 °C, the “clearance in disc diffusion sensitivity assay” value [3] is reported as “failed to give any clearance” and the IC50 ([1]; IC50 against PaFolD, 1 nM PaFolD, 35 µM N5,N10-methylene-THF, 1 mM NADP+, 20 min) is reported as ~0.03 µM and 0.027 µM. The IC50 [5] was 3 nM.

For `Cc1[nH]c2c(C#N)cnn2c(=O)c1Cc1ccccc1` [DDD55519], the “rate of association (SPR)” value [2] was “slow rates of association”, the “binding to PaFolD by SPR” value [2] was “confirmed” and the IC50 [1, 6] was 3.8 µM. For the same molecule, the Hill coefficient [1] was 1.2.

With `Nc1nc2c(c(=O)[nH]1)N1C(=O)N(c3ccc(C(=O)N[C@@H](CCC(=O)O)C(=O)O)cc3)CC1CN2` (stereo partly shown) [LY354899, 5,6,7,8-tetrahydro-N ^5,N ^10-carbonylfolic acid] the thermal shift [4] was “+9 °C” and the “clearance in disc diffusion sensitivity assay” value [3] was “failed to give any clearance”.
